For one assay, the system named is C57BL/6 mice. Kind of assay: DSS (sodium dextran sulfate) model for intestinal inflammation: colon length, weight, DAI, appearance, colonic architecture. To be noted: for Conservation of colon length (shortening of the colon): 1% DSS for 8 days, diet supplemented with 2.3 mg/day/kg (HED 10 mg); for DAI (Disease Activity Index): 8 days with DSS and 6 days recovery; for DAI (Disease Activity Index) / General appearance of the mice / Weight change / Attenuation of damage in colonic mucosa (colonic architecture): HED 10 mg; for Rectal hemorrhage / General appearance of the mice: after 1% DSS for 8 days; for Weight change: after administration of DSS (day 21); for Attenuation of damage in colonic mucosa (colonic architecture): hematoxylin-eosin, during treatment with DSS. In kind it is in vivo. Here is the method: (§1) A model for intestinal inflammation based on the administration of DSS (sodium dextran sulfate) to C57BL/6 mice was used. At the present time there is no consensus about which overall is the best model for experimental colitis. The DSS model has been widely used because it has clinical, morphological and analytical characteristics which up to a point are similar to those specific to patients with ulcerative colitis or Crohn's disease.
(§2) The in vivo inflammation test was carried out using duplicates separated by a number of months. In each test each group of animals (n=8) was fed a standard diet supplemented with 2.3 mg/day/kg (animal weight) of each of the compounds, depending upon the group. This dose assumes the ingestion of 0.05 mg/day (50 μg/day) per mouse (having a mean weight of 22 grams). This dose extrapolated to a human being is equivalent to 10 mg in an adult weighing 70 kg; using the formula HED (human equivalent dose)=animal dose in mg/kg×(animal weight kg/human weight in kg)^0.33.
(§3) In each test the mice were fed for 3 weeks during which 1% DSS was included in their drink. The DSS was maintained for 8 days (and the same food as from the start). Then the DSS was withdrawn and the animals were allowed to recover for another 6 days (again with the same food).
Groups included in the investigation: control (standard food), control-DSS, DSS-resveratrol (RES), DSS-piceid (PIC), DSS-resveratrol-diglucoside (DIGLUC), DSS-piceid-butyrate (BUT), DSS-piceid-octanoate (OCT).
• Monitoring of weight, food and drink ingestion. The mice in all groups were individually monitored, with weight, quantity of food ingested and water drunk each day being monitored throughout the experimental test. • Blood and water in feces. The water content of feces, as an indication of diarrhea, was evaluated using the difference in weight following evaporation in a stove. Blood was measured using reactive strips based on the guaiacol-peroxidase reaction (HealthCare Diagnosis Inc.). The samples were diluted 1:50 in saline solution and applied to the reactive strips. After 60 sec the color was compared with the template provided by the manufacturer. The reaction was measured using a scale from 0 (negative result) to 4 (most intense color change). • Length of colon. After sacrifice the colon was obtained from each mouse, extended and measured. Samples of the colonic mucosa for various tests mentioned below were obtained by scraping. • Myeloperoxidase activity in colonic mucosa. This was evaluated by spectrophotometry at 460 nm using O-dianisidine reagent and hydrogen peroxide. The change in absorbance at 460 nm was monitored over 10 minutes in a V-630 spectrophotometer (Jasco, Tokyo, Japan). MPO activity was expressed as mU of activity/mg of fresh tissue, comparing the increase in absorbance with a standard straight line obtained using leukocyte myeloperoxidase (Sigma). • Prostaglandins in colonic mucosa. Levels of PGE2 were measured in colonic mucosa homogenates using an immunoenzyme method using a Cayman Chem. kit (USA). • “Antibody array”. The “antibody array” kit from RayBiotech (“RayBio Mouse Inflammation Antibody Array 1”) was used to determine cytokines in colonic tissue samples. The “RayBio Mouse inflammation antibody arrays” are a fast and accurate system for determining the expression profile of multiple cytokines (in this case 40) in a very sensitive way. The sensitivity is 100 times greater than that of the ELISA method. The measurement was made in duplicate following the manufacturer's instructions. Membranes were blocked with blocking buffer and then incubated with 300 μg of protein for 2 hours. Finally the membranes were incubated with a cocktail of antibodies conjugated with biotin and then radish peroxidase marked with streptavidin. The signal was detected by chemoluminescence. Images were captured using a CCD camera fitted to a Biorad Chemidoc XRS imaging station. Signal intensities (densitometry) were analyzed using ScanAlyze software. […]

For another assay, the system named is fibrinogen. Kind of assay: Systemic inflammation marker fibrinogen (DSS model). In kind it is in vivo, mice. To be noted: vs DSS group; HED 10 mg. Here is the method:
as §1, §2, §3
• Monitoring of weight, food and drink ingestion. The mice in all groups were individually monitored, with weight, quantity of food ingested and water drunk each day being monitored throughout the experimental test. • Blood and water in feces. The water content of feces, as an indication of diarrhea, was evaluated using the difference in weight following evaporation in a stove. Blood was measured using reactive strips based on the guaiacol-peroxidase reaction (HealthCare Diagnosis Inc.). […] The reaction was measured using a scale from 0 (negative result) to 4 (most intense color change). • Length of colon. After sacrifice the colon was obtained from each mouse, extended and measured. […] This was evaluated by spectrophotometry at 460 nm using O-dianisidine reagent and hydrogen peroxide. The change in absorbance at 460 nm was monitored over 10 minutes in a V-630 spectrophotometer (Jasco, Tokyo, Japan). MPO activity was expressed as mU of activity/mg of fresh tissue, comparing the increase in absorbance with a standard straight line obtained using leukocyte myeloperoxidase (Sigma). • Prostaglandins in colonic mucosa. Levels of PGE2 were measured in colonic mucosa homogenates using an immunoenzyme method using a Cayman Chem. kit (USA). • “Antibody array”. […] The signal was detected by chemoluminescence. […] Signal intensities (densitometry) were analyzed using ScanAlyze software. […] The changes in cytokine levels were expressed as mean±SD in arbitrary density units. […]

The next assay deals with Prostaglandin E2. Kind of assay: Prostaglandins in colonic mucosa (DSS model). In kind it is in vivo, mice. To be noted: after DSS; HED 10 mg. As to the method:
as §1
The in vivo inflammation test was carried out using duplicates separated by a number of months. In each test each group of animals (n=8) was fed a standard diet supplemented with 2.3 mg/day/kg (animal weight) of each of the compounds, depending upon the group. […]
• Monitoring of weight, food and drink ingestion. The mice in all groups were individually monitored, with weight, quantity of food ingested and water drunk each day being monitored throughout the experimental test. • Blood and water in feces. The water content of feces, as an indication of diarrhea, was evaluated using the difference in weight following evaporation in a stove. Blood was measured using reactive strips based on the guaiacol-peroxidase reaction (HealthCare Diagnosis Inc.). […] The reaction was measured using a scale from 0 (negative result) to 4 (most intense color change). • Length of colon. After sacrifice the colon was obtained from each mouse, extended and measured. […]

In another assay the test system is interleukin-8 (IL-8). Kind of assay: Production of interleukin-8 in HT-29 cells inoculated with Listeria monocytogenes Scott A. In kind it is cell-based, human. To be noted: HT-29, Listeria monocytogenes Scott A; for Modulation of IL-8 production at increased dose: 50 and 100 μM; for Production of IL-8: 6 hours. Here is the method:
The human colon carcinoma cell HT-29 model was used to evaluate the ability of the compounds derived from resveratrol to modulate the production of interleukin-8 as a response to pathogenic food bacteria. […] Cell viability was observed under the microscope and the supernatants from the wells were recovered. After centrifuging (10,000 rpm/10 min) and filtering the supernatants (0.22), IL-8 was determined using the ELISA method (Human Elisa IL-8 diaclone). The concentrations of the various derivatives tested were detected in the digestive tract of experimental animals and therefore the test fell within the range of physiological achievable concentrations.

Entries after “also recorded” stand apart in the source; their conditions may differ.

`CCCC(=O)OCC1OC(Oc2cc(O)cc(/C=C/c3ccc(O)cc3)c2)C(O)C(O)C1O` [BUT, trans-resveratrol-3-O-(6′-O-butanoyl)-β-D-glucopyranoside]: in the assay on C57BL/6 mice, the “Conservation of colon length (shortening of the colon)” value is recorded as “least shortening of the colon”, the “DAI (Disease Activity Index)” value is “much less than in the remainder”, the Rectal hemorrhage entry was “no trace of rectal hemorrhage” and the “General appearance of the mice” value is given as “OCT (D)≈BUT (C)>>RES≈DIGLUC≈PIC (B)>>control-DSS (A); also recorded: better appearance than the control-DSS”. For the same compound, in the assay on C57BL/6 mice, the Weight change result was “maintained the same weight as the control group” and the “Attenuation of damage in colonic mucosa (colonic architecture)” value is on record as “best preserved colonic architecture”. Also, the Blood fibrinogen levels entry with fibrinogen was “most notable differences”. Further, the “Production of prostaglandins (PGE2) in colonic mucosa” value in the assay on Prostaglandin E2 is “best results”. For the same compound, in the assay with interleukin-8 (IL-8), the “Modulation of IL-8 production at increased dose” value is “more obvious” and the “Production of IL-8” value is on record as “reduced production significantly”.
On to `CCCCCCCC(=O)OCC1OC(Oc2cc(O)cc(/C=C/c3ccc(O)cc3)c2)C(O)C(O)C1O` [OCT, trans-resveratrol-3-O-(6′-O-octanoyl)-β-D-glucopyranoside], for which, in the assay with C57BL/6 mice, the “Conservation of colon length (shortening of the colon)” value was “least shortening of the colon”, the “DAI (Disease Activity Index)” value is on record as “much less than in the remainder”, the Rectal hemorrhage result was “no trace of rectal hemorrhage” and the “General appearance of the mice” value is listed as “OCT (D)≈BUT (C)>>RES≈DIGLUC≈PIC (B)>>control-DSS (A); also recorded: better appearance than the control-DSS”. For the same compound, in the assay with C57BL/6 mice, the Weight change result is recorded as “maintained the same weight as the control group” and the “Attenuation of damage in colonic mucosa (colonic architecture)” value is “best preserved colonic architecture”. For the same compound, the Blood fibrinogen levels entry with fibrinogen is “most notable differences”. Moreover, the “Production of prostaglandins (PGE2) in colonic mucosa” value in the assay on Prostaglandin E2 is given as “best results”. Besides, in the assay with interleukin-8 (IL-8), the “Modulation of IL-8 production at increased dose” value is “more obvious” and the “Production of IL-8” value is “reduced production significantly”.

The values are drawn from patent publication US20120309699A1, “COMPOUNDS HAVING ANTI-INFLAMMATORY ACTIVITY” (Consejo Superior de Investigaciones Cientificas (CSIC), priority 2009, published 2012).
